Data: US8653238B2, “Compositions and methods for transport of molecules with enhanced release properties across biological barriers” (The Board of Trustees of the Leland Stanford Junior …, priority 2006, dated 2014)
“And” between values parts separate entries of the source, which are not always exact repeats. Equal entries are not always repeated. Non-standard residues stand in square brackets, D forms with d. Residues, ends and D or L forms follow the SMILES beside them. *: point of attachment. Paclitaxel(2'-OCO(CH2)3S) = CC(=O)O[C@H]1C(=O)[C@@]2(C)[C@H]([C@H](OC(=O)c3ccccc3)[C@]3(O)C[C@H](OC(=O)[C@H](OC(=O)CCCS*)[C@@H](NC(=O)c4ccccc4)c4ccccc4)C(C)=C1C3(C)C)[C@]1(OC(C)=O)CO[C@@H]1C[C@@H]2O; X1 = O=C(OCCCS*)Oc1ccc2nc(C3=N[C@@H](C(=O)O)CS3)sc2c1

Columns and labels:
[1] = physchem; settings: buffer, pH 7.4
Experimental: The stabilities of the conjugates were assayed by measuring their decomposition when incubated in HEPES buffered saline (HBS, pH 7.4) at 37° C. using analytical HPLC. […] At appropriate time points 20 μl of the solutions were removed and analyzed by reverse phase HPLC. The percent decomposition was calculated from the integrated peak areas of the conjugate, the internal standard, and the various decomposition products.

[2] = system: PC3M-luc prostate cancer cell line stably transfected with luciferase; assay: Cellular assay for luciferin release from conjugates (Example 6); format: cell-based
Experimental: The PC3M-luc prostate tumor cell line (Jenkins et al., Clin. Exp. Metastasis 20:733 (2003)), was plated at 60,000 cells per well in 96 well, flat bottomed plates twelve hours prior to the assay. […] The cells were washed to remove extracellular luciferin or conjugate, resuspended with the appropriate buffer, and the resultant luminescence measured using a charged coupled device camera and Living Image software (IVIS200, Xenogen Corp., Alameda, Calif.) (see Cao et al., Proc. Natl. Acad. Sci. U.S.A. 101:221 (2004)).

[3] = system: transgenic (FVB-luc+) mice; assay: Bioluminescence after intradermal injection into luciferase transgenic mice; format: in vivo
[4] = system: FVB-luc+ mice skin; assay: Bioluminescence after topical application to skin of luciferase transgenic mice (Example 7); format: in vivo
Source text: For imaging assays to assess skin transport, hair was removed from the animals by clipping with a large hair clipper on the right flank. Subsequently, Nair® (NAIR is a registered trademark of Church & Dwight Co., Inc., Princeton N.J., USA for a depilatory cream) was applied for 90 seconds, wiped off, and the animals were washed well with wet paper towels and dried. Five days were allowed for stratum corneum regrowth before the mice were used for imaging.
Formulations for topical application of conjugates were prepared as follows. […] Luminescence was observed over approximately 60 minutes.
In vivo bioluminescence imaging was carried out as follows. Animals were imaged in a dark chamber using a cooled CCD camera (IVIS100 Xenongen Corp.) as previously described 45 and the data were analyzed using LivingImage software (Xenogen Corp.). Data are expressed as photons/ster radian/sec for each region of interest such that the data are not dependent on camera settings, chamber geometry or integration time.
The most reproducible method to evaluate the relative performance of transporters and linkers was to apply a single drop of a solution of each conjugate to the flank of anesthetized FVB-luc+ mice. The drop was allowed to remain in contact with the skin for the duration of the assay during which luminescence from the animal was monitored. […]

[5] = system: OVCA429TP; assay: cells
Experimental: (§1) FIG. 12 depicts an assay for GI50 (nM) of 429 Ovarian Cancer Lines, 20 min pulse with indicated compounds. The cells were pulsed for 20 min, washed (×2) and incubated for 72 hr in fresh media. For each compound, three bars are depicted, for 429 cells, 429 T cells, and 429 TP cells (from left to right).
(§2) The cells were pulsed with conjugates administered in PBS (pH=7.4) and Taxol (administered in DMSO) for 20 min. Then the solution was removed, the cells were washed twice and incubated in fresh media for 72 hr. The presence of live cells were measured based on the standard MTS assay.

[6] = system: OVCA429T; assay: cells
Experimental: as §1, §2

[7] = system: OVCA429; assay: cells
Experimental: as §1, §2

[8] = 429TP cells (Taxol resistant, unknown mechanism), 20 min pulse, 72 hr
[9] = 429T cells (Taxol resistant, PGP overexpression), 20 min pulse, 72 hr
[10] = 429 cells, 20 min pulse, washed ×2, 72 hr in fresh media, conjugates in PBS pH 7.4, taxol in DMSO

CC(=O)N[C@H](CSSCCOC(=O)Oc1ccc2nc(C3=N[C@@H](C(=O)O)CS3)sc2c1)C(=O)N[C@H](CCCNC(=N)N)C(=O)N[C@H](CCCNC(=N)N)C(=O)N[C@H](CCCNC(=N)N)C(=O)N[C@H](CCCNC(=N)N)C(=O)N[C@H](CCCNC(=N)N)C(=O)N[C@H](CCCNC(=N)N)C(=O)N[C@H](CCCNC(=N)N)C(=O)N[C@H](CCCNC(=N)N)C(N)=O [5a]
half-life at 0.8 mg/ml [1]: 3 h

CC(=O)N[C@H](CSSCCCOC(=O)Oc1ccc2nc(C3=N[C@@H](C(=O)O)CS3)sc2c1)C(=O)N[C@H](CCCNC(=N)N)C(=O)N[C@H](CCCNC(=N)N)C(=O)N[C@H](CCCNC(=N)N)C(=O)N[C@H](CCCNC(=N)N)C(=O)N[C@H](CCCNC(=N)N)C(=O)N[C@H](CCCNC(=N)N)C(=O)N[C@H](CCCNC(=N)N)C(=O)N[C@H](CCCNC(=N)N)C(N)=O [5b] (Ac-[dC](X1)[dR][dR][dR][dR][dR][dR][dR][dR]-NH2)
time for luminescent signal to reach background ([2]; 1 minute pulse, HBS pH 7.4): approximately 1000 seconds
time over which signal increases after injection ([3]; intradermal injection): 20 min
area under the curve of bioluminescence ([3]; intradermal injection of 100 uL of 200 nM in HBS pH 7.4, two different animals): 2.54 ×10^10 photons and 2.01 ×10^10 photons
theoretical amount of luciferin in the injected sample accounted for ([3]; intradermal injection, photons emitted in 60 minutes × 400 molecules per photon): Approximately 80%
amount of luciferin released in one hour ([4]; 15 μL of 5 mM in 75% PEG 400/25% 200 mM NaOAc pH 6.0): 3.62e-12 mol
cumulative intradermal concentration of luciferin over one hour ([4]; 15 μL of 5 mM in 75% PEG 400/25% 200 mM NaOAc pH 6.0, skin thickness 0.69 mm): 47 nM
half-life at 0.8 mg/ml [1]: 11 h

CC(=O)N[C@H](CSSCCCC(=O)O[C@@H](C(=O)O[C@H]1C[C@@]2(O)[C@@H](OC(=O)c3ccccc3)[C@@H]3[C@]4(OC(C)=O)CO[C@@H]4C[C@H](O)[C@@]3(C)C(=O)[C@H](OC(C)=O)C(=C1C)C2(C)C)[C@@H](NC(=O)c1ccccc1)c1ccccc1)C(=O)N[C@H](CCCNC(=N)N)C(=O)N[C@H](CCCNC(=N)N)C(=O)N[C@H](CCCNC(=N)N)C(=O)N[C@H](CCCNC(=N)N)C(=O)N[C@H](CCCNC(=N)N)C(=O)N[C@H](CCCNC(=N)N)C(=O)N[C@H](CCCNC(=N)N)C(=O)N[C@H](CCCNC(=N)N)C(N)=O [Compound 62, Taxol C2′ Octaarginine Conjugate 62] (Ac-[dC](Paclitaxel(2'-OCO(CH2)3S))[dR][dR][dR][dR][dR][dR][dR][dR]-NH2)
GI50 [5, 8]: 101 nM
GI50 [6, 9]: 420 nM
GI50 [7, 10]: 12 nM

CC(=O)N[C@H](CSSCCCC(=O)O[C@H]1C[C@H]2OC[C@@]2(OC(C)=O)[C@H]2[C@H](OC(=O)c3ccccc3)[C@]3(O)C[C@H](OC(=O)[C@H](O)[C@@H](NC(=O)c4ccccc4)c4ccccc4)C(C)=C([C@@H](OC(C)=O)C(=O)[C@]12C)C3(C)C)C(=O)N[C@H](CCCNC(=N)N)C(=O)N[C@H](CCCNC(=N)N)C(=O)N[C@H](CCCNC(=N)N)C(=O)N[C@H](CCCNC(=N)N)C(=O)N[C@H](CCCNC(=N)N)C(=O)N[C@H](CCCNC(=N)N)C(=O)N[C@H](CCCNC(=N)N)C(=O)N[C@H](CCCNC(=N)N)C(N)=O [Compound 67, Taxol C7 Octaarginine Conjugate 67]
GI50 [5, 8]: 93 nM
GI50 [6, 9]: 225 nM
GI50 [7, 10]: 125 nM

O=C(O)[C@H]1CSC(c2nc3ccc(O)cc3s2)=N1 [luciferin, reference compound]
change of luminescence in K+HBS ([2]; K+HBS versus HBS, 25 μM luciferin): increased slightly
area under the curve relative to 200 nM dose ([3]; mouse, in vivo): 10.24%
area under the curve of bioluminescence ([3]; mouse, in vivo, pH 7.4): 3.02×10^10 photons and 3.11×10^9 photons

CC(=O)O[C@H]1C(=O)[C@@]2(C)[C@H]([C@H](OC(=O)c3ccccc3)[C@]3(O)C[C@H](OC(=O)[C@H](O)[C@@H](NC(=O)c4ccccc4)c4ccccc4)C(C)=C1C3(C)C)[C@]1(OC(C)=O)CO[C@@H]1C[C@@H]2O [taxol, paclitaxel, reference compound]
GI50 ([5]; Homo sapiens): 8480 nM
GI50 ([6]; Homo sapiens): 15800 nM
GI50 ([7]; Homo sapiens, OVCA429, pH 7.4): 147 nM
